Assay results as given in ChEMBL document CHEMBL1201862, “PubChem BioAssay data set” (2004).
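Results reflect a 48-hour exposure of cells in 96-well plates to compound at five concentrations. Here, GI50 denotes the concentration required for 50% inhibition of growth.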 Calls of active or inactive are those of the source. Cut-off read from the data, not from the text of the source: active = GI50 up to about 1.1 µM and inactive = higher.

Key:
Test in all cases: NCI tumour cell line growth inhibition, 48 h
T47D = tested on: T47D
Hs-578T = tested on: Hs-578T
TK-10 = tested on: TK-10
NCI-H226 = tested on: NCI-H226
HOP-92 = tested on: HOP-92
SR = tested on: SR
SN12C = tested on: SN12C
HCT-116 = tested on: HCT-116
UACC-62 = tested on: UACC-62
NCI-H23 = tested on: NCI-H23
NCI-H460 = tested on: NCI-H460
K562 = tested on: K562
786-0 = tested on: 786-0
SK-MEL-28 = tested on: SK-MEL-28
M14 = tested on: M14
UO-31 = tested on: UO-31
IGROV-1 = tested on: IGROV-1
OVCAR-3 = tested on: OVCAR-3
HT-29 = tested on: HT-29
SNB-75 = tested on: SNB-75
MCF7 = tested on: MCF7
MDA-N = tested on: MDA-N
BT-549 = tested on: BT-549
HCT-15 = tested on: HCT-15
SK-MEL-5 = tested on: SK-MEL-5
RPMI-8226 = tested on: RPMI-8226
HOP-62 = tested on: HOP-62
OVCAR-8 = tested on: OVCAR-8
A549 = tested on: A549
OVCAR-4 = tested on: OVCAR-4
MDA-MB-231 = tested on: MDA-MB-231
U-251 = tested on: U-251
CAKI-1 = tested on: CAKI-1
Malme-3M = tested on: Malme-3M
NCI-H522 = tested on: NCI-H522
SNB-19 = tested on: SNB-19
SF-539 = tested on: SF-539
SF-268 = tested on: SF-268
CCRF-CEM = tested on: CCRF-CEM
UACC-257 = tested on: UACC-257
NCI/ADR-RES = tested on: NCI/ADR-RES
RXF 393 = tested on: RXF 393
MOLT-4 = tested on: MOLT-4
A498 = tested on: A498
HCC 2998 = tested on: HCC 2998
SK-OV-3 = tested on: SK-OV-3
PC-3 = tested on: PC-3
OVCAR-5 = tested on: OVCAR-5
SK-MEL-2 = tested on: SK-MEL-2
DU-145 = tested on: DU-145
KM12 = tested on: KM12
COLO 205 = tested on: COLO 205
ACHN = tested on: ACHN
SF-295 = tested on: SF-295
MDA-MB-435 = tested on: MDA-MB-435
SW-620 = tested on: SW-620

With `COc1ccc(NC(=S)NNC(=O)c2cc(-c3ccccc3)nc3ccccc23)cc1` the GI50 (T47D) was 14.9 µM (inactive), the GI50 (Hs-578T) was 24 µM (inactive) and the GI50 (TK-10) was 15.8 µM (inactive). For the same compound, the GI50 (NCI-H226) was 20.1 µM (inactive), the GI50 (HOP-92) was 10.6 µM (inactive) and the GI50 (SR) was 2.81 µM (inactive). For the same compound, the GI50 (SN12C) was 18.6 µM (inactive), the GI50 (HCT-116) was 12.4 µM (inactive) and the GI50 (UACC-62) was 11.5 µM (inactive). The GI50 (NCI-H23) was 13.6 µM (inactive), the GI50 (NCI-H460) was 16.1 µM (inactive) and the GI50 (K562) was 15.7 µM (inactive). For the same compound, the GI50 (786-0) was 17.9 µM (inactive), the GI50 (SK-MEL-28) was 10.4 µM (inactive) and the GI50 (M14) was 15.4 µM (inactive). For the same compound, the GI50 (UO-31) was 11.4 µM (inactive), the GI50 (IGROV-1) was 26.5 µM (inactive) and the GI50 (OVCAR-3) was 12 µM (inactive). The GI50 (HT-29) was 19.9 µM (inactive), the GI50 (SNB-75) was 16.1 µM (inactive) and the GI50 (MCF7) was 0.568 µM (active). For the same compound, the GI50 (MDA-N) was 4.03 µM (inactive), the GI50 (BT-549) was 14.1 µM (inactive) and the GI50 (HCT-15) was 12.3 µM. For the same compound, the GI50 (SK-MEL-5) was 11.4 µM (inactive), the GI50 (RPMI-8226) was 11.4 µM (inactive) and the GI50 (HOP-62) was 15.1 µM (inactive). The GI50 (OVCAR-8) was 17.2 µM (inactive), the GI50 (A549) was 17.7 µM (inactive) and the GI50 (OVCAR-4) was 19.3 µM (inactive). The GI50 (MDA-MB-231) was 22.5 µM (inactive), the GI50 (U-251) was 15.5 µM (inactive) and the GI50 (CAKI-1) was 23.4 µM (inactive). For the same compound, the GI50 (Malme-3M) was 11.2 µM (inactive), the GI50 (NCI-H522) was 17.1 µM (inactive) and the GI50 (SNB-19) was 23.9 µM (inactive). For the same compound, the GI50 (SF-539) was 13.2 µM (inactive), the GI50 (SF-268) was 26.1 µM (inactive) and the GI50 (CCRF-CEM) was 12.9 µM (inactive). For the same compound, the GI50 (UACC-257) was 18.4 µM (inactive), the GI50 (NCI/ADR-RES) was 12.3 µM (inactive) and the GI50 (RXF 393) was 13.9 µM (inactive). For the same compound, the GI50 (MOLT-4) was 19.7 µM (inactive), the GI50 (A498) was 14.3 µM (inactive) and the GI50 (HCC 2998) was 12.1 µM (inactive). The GI50 (SK-OV-3) was 0.479 µM (active), the GI50 (PC-3) was 19.2 µM (inactive) and the GI50 (OVCAR-5) was 20.8 µM (inactive). For the same compound, the GI50 (SK-MEL-2) was 16 µM (inactive), the GI50 (DU-145) was 18.1 µM (inactive) and the GI50 (KM12) was 16.1 µM (inactive). For the same compound, the GI50 (COLO 205) was 31.8 µM (inactive), the GI50 (ACHN) was 22.1 µM (inactive) and the GI50 (SF-295) was 3.5 µM (inactive). For the same compound, the GI50 (MDA-MB-435) was 2.95 µM (inactive) and the GI50 (SW-620) was 14.6 µM (inactive).
